# According to patent US9187496B2 (priority 2009, dated 2015):
# Read-outs that look alike come from different tables or passages of the source.
# Key:
# [1] = test system: Huh-7 cells containing HCV Con1 subgenomic replicon (GS4.1 cells); experiment: HCV replicon assay (NS5A ELISA); type: cell-based; settings: Hepatitis C virus, Huh-7; GS4.1 cells, 72 hrs, NS5A ELISA; read-out: EC50
# How it was run: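 GS4.1 cells dosed 3 h after seeding with ten 2-fold dilutions from 75 μM, or single 15 μM, in 0.5% DMSO for 72 h at 37° C; NS5A measured by ELISA (A-236 antibody, OPD, A492). EC50 from four-parameter sigmoidal fit of % inhibition.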
# [2] = Cytotoxicity evaluation in GS4.1 cells (Cell Titer 96 AQueous One); type: cell-based, human; settings: human, cellular viability
# Method: For cytotoxicity evaluation, GS4.1 cells were treated with compounds as described above and cellular viability was monitored using the Cell Titer 96 AQueous One Solution Cell Proliferation Assay (Promega). CC50 values were determined from the % cytotoxicity versus concentration data with Tecan Magellan software as described above.
# [3] = test system: HCV genotype 1b Conl strain subgenomic luciferase replicon (Zluc); experiment: Luciferase replicon assay, genotype 1b; type: cell-based; settings: read-out: EC50 1b
# Method: (§1) The HCV luciferase replicon assay measures the ability of a test compound to inhibit HCV replication in cell culture after 3 days of treatment in a human hepatoma cell line (Huh-7) bearing a HCV replicon containing a luciferase-neomycin phosphotransferase fusion gene. The inhibition of HCV replication was measured by quantification of luciferase protein expression. Briefly, Huh-7 cells containing either the HCV genotype 1a H77 strain or genotype 1b Conl strain subgenomic luciferase replicon (H1a-luc or Zluc, respectively) were grown in DMEM containing glucose, L-glutamine and sodium pyruvate, 10% fetal bovine serum (FBS), 100 IU/mL penicillin, 100 μg/mL streptomycin, 2 mM GlutaMAX, non-essential amino acids and 0.25 (H1a-luc) or 0.5 (Zluc) mg/mL G418. GlutaMAX was obtained from Invitrogen, Corp.; all other media reagents were obtained from Mediatech, Inc. For dose-response testing, the cells were seeded in 96-well plates at 1×10^4 (H1a-luc) or 7.5×10^3 (Zluc) cells/well in a volume of 50 μL, and incubated at 37° C./5% CO2. Three hours after plating, 50 μL of ten 5-fold serial dilutions of compound were added, and cell cultures were incubated at 37° C./5% CO2 for 72 hours. In all cases, Huh-7 cells lacking the HCV replicon served as negative control. To assess luciferase expression, the media/compound was removed from the plates and ONE-glo Luciferase assay reagent (Promega) was added to each well. The assay plates were shaken for 3 minutes at room temperature and luciferase activity for each well was measured with a 1 sec read time on the Victor^3V multilabel counter using a 700 nm cut-off filter (Perkin Elmer). EC50 values were calculated from dose response curves from the resulting best-fit equations determined by Microsoft Excel and XLfit 4.1 software.
# [4] = test system: HCV genotype 2a-specific NS5A gene within the 1b-replicon; experiment: Luciferase replicon assay, NS5A-intergenotypic stable cell line genotype 2a; type: cell-based; settings: read-out: EC50 2a
# Description: (§2) The nucleotide sequences of the NS5A region of genotype 2a (GenBank Accession #AB047639), genotype 3a (GenBank Accession #D17763), and genotype 4a (GenBank Accession#DQ418788) were synthesized by an outside vendor. The NS5A region of each of these genotypes included the first 11 amino acids of the protease recognition sequence of genotype 1b, as well as the last 10 amino acids of genotype 1b. The NS5A gene cassettes were excised with site specific restriction endonucleases and ligated into a ZS11-luciferase genotype 1b backbone (backbone contains the genotype 1b NS3 protease, NS4a, NS4b, and NS5b coding regions) with similarly cut restriction enzyme sites. Thus, the newly constructed plasmid contains a genotype 2a-, 3a- or 4a-specific NS5A gene within the 1b-replicon.
# (§3) These new intergenotypic plasmids were used to establish stable cell lines. RNA was generated from the NS5A intergenotypic plasmids and used in conjunction with a lipofectin reagent to transfect a cured Huh7 cell line. Transfected cells were selected for with G418. After selection has occurred the stable cell lines were propagated, tested for luciferase activity, and RT-PCR with genotype specific primers (either 1a, 2a, 3a, or 4a). Stable cell lines containing the intergenotypic replicon were then fully sequenced and analysed for proper expression of NS3, NS5A and NS5B proteins.
# (§4) Drug titration analysis was performed using the luciferase replicon assay described herein.
# as §1
# [5] = test system: HCV genotype 3a-specific NS5A gene within the 1b-replicon; experiment: Luciferase replicon assay, NS5A-intergenotypic stable cell line genotype 3a; type: cell-based; settings: read-out: EC50 3a
# Description: as §2, §3, §4, §1
# [6] = test system: HCV genotype 4a-specific NS5A gene within the 1b-replicon; experiment: Luciferase replicon assay, NS5A-intergenotypic stable cell line genotype 4a; type: cell-based; settings: read-out: EC50 4a
# Description: as §2, §3, §4, §1
# [7] = test system: HCV genotype 1a H77 strain (H1a-luc replicon / 1a-H77NS5a intergenotypic replicon); experiment: Luciferase replicon assay, genotype 1a; type: cell-based; settings: Hepatitis C virus, read-out: EC50 1a, genotype 1a
# Description: To generate the 1a-H77NS5a intergenotypic plasmid, dual cut sites were inserted into the ZS11-luciferase genotype 1b backbone that would bracket the NS5a region almost in its entirety. Using PCR and 1a-H77 specific primers also containing the corresponding restriction enzyme sites, the NS5a gene was amplified from the 1a-H77 replicon. The ZS11-luciferase genotype 1b backbone and the genotype 1a NS5a PCR products were restriction enzyme digested and then ligated using standard molecular cloning techniques. The newly constructed plasmid contains the genotype 1a-specific NS5a gene where as the backbone remains 1b as described herein.
# as §3, §4, §1
# [8] = Cytotoxicity evaluation in luciferase replicon cells (Cell Titer 96 AQueous One); type: cell-based, human; settings: human; Table 1B, cellular viability
# Method: (§5) For cytotoxicity evaluation, H1a-luc or Zluc cells were treated with compounds as described above and cellular viability was monitored using the Cell Titer 96 AQueous One Solution Cell Proliferation Assay (Promega). Plates were then read at 490 nm in a Victor^3V 1420 multilabel counter (Perkin Elmer) and CC50 concentrations were determined using Microsoft Excel and XLfit 4.1 software.
# H1a-luc or Zluc cells = experiment: as above; type: cell-based, human; settings: Table 1B, cellular viability
# Method: as §5
Compound,EC50 [1] [nM],CC50 [2] [nM],"EC50 ([3]; Hepatitis C virus, 72 h) [nM]",EC50 ([4]; Hepatitis C virus) [nM],EC50 ([5]; Hepatitis C virus) [nM],EC50 ([6]; Hepatitis C virus) [nM],EC50 [7] [nM],CC50 at 72 h [8] [nM],"EC50 ([3]; genotype 1b, luciferase replicon, 72 hours) [nM]",EC50 ([4]; genotype 2a) [nM],EC50 ([5]; genotype 3a) [nM],EC50 ([6]; genotype 4a) [nM],CC50 (H1a-luc or Zluc cells) [nM]
COC(=O)N[C@@H](C(=O)N1CCCC1c1ncc(-c2cn3cc(-c4ccc(-c5cnc([C@@H]6CCCN6C(=O)[C@H](NC(=O)OC)c6ccccc6)[nH]5)cc4)nc3s2)[nH]1)c1ccccc1 (stereo partly shown) [A60],< 1,> 75000,,,,,,,,,,,
"COC(=O)N[C@H](C(=O)N1CCC[C@H]1c1ncc(-c2ccc(-c3csc4c(-c5cnc([C@@H]6CCCN6C(=O)[C@@H](NC(=O)OC)C(C)C)[nH]5)csc34)cc2)[nH]1)C(C)C [Compound A15, [(S)-1-((S)-2-{4-[4-(6-{2-[(S)-1-((S)-2-methoxycarbonylamino-3-methyl-butyryl)-pyrrolidin-2-yl]-3H-imidazol-4-yl}-thieno[3,2-b]thiophen-3-yl)-phenyl]-1H-imidazol-2-yl}-pyrrolidine-1-carbonyl)-2-methyl-propyl]-carbamic acid methyl ester]",< 1,10000 to 75000,< 0.1,< 0.1,0.1 to 1,< 0.1,< 0.1,10000 to 75000,,,,,
"COC(=O)N[C@H](C(=O)N1CCC[C@H]1c1ncc(-c2ccc(-c3csc4c(-c5ccc(-c6cnc([C@@H]7CCCN7C(=O)[C@@H](NC(=O)OC)C(C)C)[nH]6)cc5)csc34)cc2)[nH]1)C(C)C [Compound A86, ((S)-1-((S)-2-(5-{4-[6-{4-{2-[(S)-1-((S)-2-methoxycarbonylamino-3-methyl-butyryl)-pyrrolidin-2-yl]-3H-imidazol-4-yl}-phenyl)-thieno[3,2-b]thiophen-3-yl]-phenyl}-1H-imidazol-2-yl)-pyrrolidine-1-carbonyl]-2-methyl-propyl}-carbamic acid methyl ester]",< 1,10000 to 75000,< 0.1,1 to 10,1 to 10,< 0.1,0.1 to 1,10000 to 75000,,,,,
"COC(=O)N[C@H](C(=O)N1CCC[C@H]1c1nc(-c2ccc(-c3csc4c(Br)csc34)cc2)c[nH]1)C(C)C [Compound A155, [(S)-1-((S)-2-{4-[4-(6-bromo-thieno[3,2-b]thiophen-3-yl)-phenyl]-1H-imidazol-2-yl}-pyrrolidine-1-carbonyl)-2-methyl-propyl]-carbamic acid methyl ester]",10 to 100,10000 to 75000,,,,,,,,,,,
"COC(=O)N[C@H](C(=O)N1CCC[C@H]1c1ncc(-c2ccc(-c3cc4sc(-c5ccc6[nH]c([C@@H]7CCCN7C(=O)[C@H](NC(=O)OC)c7ccccc7)nc6c5)cc4s3)cc2)[nH]1)C(C)C [Compound A194, [(S)-1-((S)-2-{4-[4-(5-{(S)-2-[1-((R)-2-methoxycarbonylamino-2-phenyl-acetyl)-pyrrolidin-2-yl]-3H-benzoimidazol-5-yl}-thieno[3,2-b]thiophen-2-yl)-phenyl]-1H-imidazol-2-yl}-pyrrolidine-1-carbonyl)-2-methyl-propyl]-carbamic acid methyl ester]",,,< 0.1,1 to 10,0.1 to 1,< 0.1,0.1 to 1,> 75000,,,,,
COC(=O)N[C@H](C(=O)N1CCC[C@H]1c1nc2ccc(-c3csc4c(C#Cc5cnc([C@@H]6CCCN6C(=O)[C@H](NC(=O)OC)c6ccccc6)[nH]5)csc34)cc2[nH]1)C(C)C [Compound A206],,,,,,,,,< 0.1,< 0.1,< 0.1,< 0.1,> 75000
COC(=O)N[C@H](C(=O)N1CCC[C@H]1c1nc2ccc(-c3csc4c(-c5ccc6nc([C@@H]7CCCN7C(=O)[C@H](NC(=O)OC)c7ccccc7)[nH]c6c5)csc34)cc2[nH]1)C(C)C [Compound A208],,,< 0.1,< 0.1,< 0.1,< 0.1,< 0.1,> 75000,,,,,
